Laboratory results from ChEMBL document CHEMBL1151757, “Synthesis, radiosynthesis, and biological evaluation of fluorine-18-labeled 2beta-carbo(fluoroalkoxy)-3beta-(3'-((Z)-2-haloethenyl)phenyl)nortropanes: candidate radioligands for in vivo imaging of the serotonin transporter with positron emission tomography” (J Med Chem, 2008).

Legend:
Type in all cases: ADME, organism-based, Macaca fascicularis
[1] = Ratio of drug uptake in caudate to cerebellum in anesthetized cynomolgus monkey after 195 mins postinjection; conditions: in vivo, 3.25 h
[2] = Ratio of drug uptake in thalamus to cerebellum in anesthetized cynomolgus monkey after 205 mins postinjection; conditions: in vivo
[3] = Drug uptake in anesthetized cynomolgus monkey brain occipital lobe after 185 mins postinjection; conditions: in vivo
[4] = Ratio of drug uptake in caudate to cerebellum in anesthetized cynomolgus monkey after 185 mins postinjection; conditions: in vivo
[5] = Ratio of drug uptake in medulla to cerebellum in anesthetized cynomolgus monkey after 6.5 mins postinjection; conditions: in vivo
[6] = Drug uptake in anesthetized cynomolgus monkey brain cerebellum after 125 mins postinjection; conditions: in vivo
[7] = Drug uptake in anesthetized cynomolgus monkey brain frontal lobe after 185 mins postinjection; conditions: in vivo
[8] = Drug uptake in anesthetized cynomolgus monkey brain frontal lobe after 205 mins postinjection; conditions: in vivo
[9] = Drug uptake in anesthetized cynomolgus monkey brain frontal lobe after 135 mins postinjection; conditions: in vivo, 2.25 h
[10] = Drug uptake in anesthetized cynomolgus monkey brain cerebellum after 55 mins postinjection; conditions: in vivo
[11] = Drug uptake in anesthetized cynomolgus monkey brain cerebellum after 105 mins postinjection; conditions: in vivo, 1.75 h
[12] = Drug uptake in anesthetized cynomolgus monkey brain cerebellum after 185 mins postinjection; conditions: in vivo
[13] = Drug uptake in anesthetized cynomolgus monkey brain cerebellum after 145 mins postinjection; conditions: in vivo

## O=C(OCC[18F])C1C2CCC(CC1c1cccc(/C=C\Br)c1)N2 (stereo not drawn)
[1]
  Ratio: 1.7
[2]
  Ratio: 1.8
[3]
  Drug uptake: 2.37
[4]
  Ratio: 1.8
[5]
  Ratio: 1.3
[6]
  Drug uptake: 2.68
[7]
  Drug uptake: 2.29
[8]
  Drug uptake: 1.98
[9]
  Drug uptake: 2.56
[10]
  Drug uptake: 3.61
[11]
  Drug uptake: 2.87
[12]
  Drug uptake: 1.86
[13]
  Drug uptake: 2.35
